{"source": "paper PMC10174618", "about": "“Monoterpenoid aryl hydrocarbon receptor allosteric antagonists protect against ultraviolet skin damage in female mice” (Nature Communications, 2023)", "assay_in_all_cases": "biochemical", "set-up_in_all_cases": "KINOMEscan scanMAX active site-directed competition binding assay, percent of control, 468 kinases", "details_in_all_cases": "competition binding, percent of control", "key": {"AKT1": {"molecular_target": "AKT1 (Homo sapiens, UniProt P31749)", "sequence (P31749 whole entry)": "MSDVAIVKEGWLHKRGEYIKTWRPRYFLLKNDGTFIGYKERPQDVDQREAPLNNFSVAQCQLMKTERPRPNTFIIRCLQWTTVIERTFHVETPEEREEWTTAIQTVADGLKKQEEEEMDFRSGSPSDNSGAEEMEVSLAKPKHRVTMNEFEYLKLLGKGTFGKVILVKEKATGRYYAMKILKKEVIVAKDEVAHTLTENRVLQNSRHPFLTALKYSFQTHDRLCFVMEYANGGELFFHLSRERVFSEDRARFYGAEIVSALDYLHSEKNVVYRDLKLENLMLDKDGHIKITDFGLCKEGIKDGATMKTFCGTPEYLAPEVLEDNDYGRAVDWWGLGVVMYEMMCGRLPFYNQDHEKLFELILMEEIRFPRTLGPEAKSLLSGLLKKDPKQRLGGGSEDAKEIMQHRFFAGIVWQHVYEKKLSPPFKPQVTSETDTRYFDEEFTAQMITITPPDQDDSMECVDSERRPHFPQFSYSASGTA", "outline": "(§1)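 Single-concentration screen (100 μM S-carvone) in a competition binding panel of 468 human kinases (KINOMEscan scanMAX); results given as percent of control, hit cutoff 35%.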"}, "YANK3": {"molecular_target": "T1, YANK3 (Homo sapiens, UniProt Q86UX6)", "T1 construct": "gene STK32C", "outline": "as §1"}, "TNIK": {"molecular_target": "TNIK (Homo sapiens, UniProt Q9UKE5)", "outline": "as §1"}, "MLCK": {"molecular_target": "T2, MLCK (Homo sapiens, UniProt Q32MK0)", "T2 construct": "gene MYLK3", "outline": "as §1"}, "PFTAIRE2": {"molecular_target": "T3, PFTAIRE2 (Homo sapiens, UniProt Q96Q40)", "T3 construct": "gene CDK15", "outline": "as §1"}, "PIK3CA": {"molecular_target": "PIK3CA (Homo sapiens, UniProt P42336)", "sequence (P42336 whole entry)": "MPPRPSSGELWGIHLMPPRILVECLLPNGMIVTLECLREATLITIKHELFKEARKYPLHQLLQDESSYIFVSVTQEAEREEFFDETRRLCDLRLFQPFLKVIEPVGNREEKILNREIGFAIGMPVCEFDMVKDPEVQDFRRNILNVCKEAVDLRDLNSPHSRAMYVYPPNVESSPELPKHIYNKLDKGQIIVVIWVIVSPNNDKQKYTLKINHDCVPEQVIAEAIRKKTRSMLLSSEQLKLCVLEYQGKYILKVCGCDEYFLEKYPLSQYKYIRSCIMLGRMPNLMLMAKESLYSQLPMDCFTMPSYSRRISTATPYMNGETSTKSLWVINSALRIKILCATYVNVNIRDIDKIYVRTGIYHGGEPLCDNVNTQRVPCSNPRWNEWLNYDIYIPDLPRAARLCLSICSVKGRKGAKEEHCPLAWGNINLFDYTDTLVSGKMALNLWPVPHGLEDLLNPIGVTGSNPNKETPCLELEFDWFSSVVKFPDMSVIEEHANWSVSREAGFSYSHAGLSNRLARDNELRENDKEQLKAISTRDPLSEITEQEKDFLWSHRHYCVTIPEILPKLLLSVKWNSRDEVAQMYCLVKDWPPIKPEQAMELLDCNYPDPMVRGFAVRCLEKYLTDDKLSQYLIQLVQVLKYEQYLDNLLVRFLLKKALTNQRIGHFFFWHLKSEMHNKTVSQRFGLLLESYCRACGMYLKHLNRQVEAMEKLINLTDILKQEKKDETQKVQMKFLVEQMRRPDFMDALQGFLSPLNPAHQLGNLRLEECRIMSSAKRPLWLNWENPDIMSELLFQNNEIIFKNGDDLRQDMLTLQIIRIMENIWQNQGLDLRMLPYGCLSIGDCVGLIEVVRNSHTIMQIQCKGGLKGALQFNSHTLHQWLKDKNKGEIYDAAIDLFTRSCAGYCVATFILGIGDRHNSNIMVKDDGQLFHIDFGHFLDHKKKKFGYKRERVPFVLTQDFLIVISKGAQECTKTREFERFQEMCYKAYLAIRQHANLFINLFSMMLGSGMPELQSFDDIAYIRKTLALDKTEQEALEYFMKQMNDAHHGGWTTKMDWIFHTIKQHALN", "outline": "as §1"}, "EPHB3": {"molecular_target": "EPHB3 (Homo sapiens, UniProt P54753)", "outline": "as §1"}, "CDKL1": {"molecular_target": "CDKL1 (Homo sapiens, UniProt Q00532)", "sequence (Q00532 whole entry)": "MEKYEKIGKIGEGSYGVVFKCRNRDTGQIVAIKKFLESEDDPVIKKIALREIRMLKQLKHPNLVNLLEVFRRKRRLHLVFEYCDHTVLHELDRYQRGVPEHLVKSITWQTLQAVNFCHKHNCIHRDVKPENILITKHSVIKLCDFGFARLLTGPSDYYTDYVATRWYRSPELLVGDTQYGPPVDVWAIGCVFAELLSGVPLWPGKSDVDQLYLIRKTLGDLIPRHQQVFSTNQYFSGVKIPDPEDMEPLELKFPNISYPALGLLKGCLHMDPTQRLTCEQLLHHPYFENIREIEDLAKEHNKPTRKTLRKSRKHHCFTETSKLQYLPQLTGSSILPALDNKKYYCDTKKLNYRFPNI", "outline": "as §1"}, "FES": {"molecular_target": "FES (Homo sapiens, UniProt P07332)", "outline": "as §1"}, "YES": {"molecular_target": "T4, YES (Homo sapiens, UniProt P07947)", "T4 construct": "gene YES1", "outline": "as §1"}, "FLT3(N841I)": {"molecular_target": "FLT3(N841I) (Homo sapiens, UniProt P36888, N841I)", "outline": "as §1"}, "TNK2": {"molecular_target": "TNK2 (Homo sapiens, UniProt Q07912)", "outline": "as §1"}, "MARK3": {"molecular_target": "MARK3 (Homo sapiens, UniProt P27448)", "sequence (P27448 whole entry)": "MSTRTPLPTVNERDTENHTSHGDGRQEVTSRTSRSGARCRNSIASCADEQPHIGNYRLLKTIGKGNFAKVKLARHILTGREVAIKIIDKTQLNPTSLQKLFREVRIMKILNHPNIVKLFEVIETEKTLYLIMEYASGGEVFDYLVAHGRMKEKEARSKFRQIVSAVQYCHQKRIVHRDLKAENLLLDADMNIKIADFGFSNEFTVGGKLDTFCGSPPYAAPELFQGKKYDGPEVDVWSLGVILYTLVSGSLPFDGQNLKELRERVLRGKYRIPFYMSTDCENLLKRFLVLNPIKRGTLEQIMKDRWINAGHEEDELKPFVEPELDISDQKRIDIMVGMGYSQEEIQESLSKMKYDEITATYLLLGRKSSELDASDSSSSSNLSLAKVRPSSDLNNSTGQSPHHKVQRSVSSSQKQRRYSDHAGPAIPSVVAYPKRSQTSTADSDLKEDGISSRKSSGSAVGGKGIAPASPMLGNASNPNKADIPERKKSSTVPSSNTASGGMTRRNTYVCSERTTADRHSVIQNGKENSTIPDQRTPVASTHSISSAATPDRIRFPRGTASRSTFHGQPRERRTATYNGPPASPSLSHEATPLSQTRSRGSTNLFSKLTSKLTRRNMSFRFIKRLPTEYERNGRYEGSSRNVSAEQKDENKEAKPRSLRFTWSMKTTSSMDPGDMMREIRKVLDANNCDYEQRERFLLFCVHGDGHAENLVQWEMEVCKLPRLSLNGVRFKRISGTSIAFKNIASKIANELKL", "outline": "as §1"}, "ALK": {"molecular_target": "ALK (Homo sapiens, UniProt Q9UM73)", "outline": "as §1"}, "MYLK4": {"molecular_target": "MYLK4 (Homo sapiens, UniProt Q86YV6)", "sequence (Q86YV6 whole entry)": "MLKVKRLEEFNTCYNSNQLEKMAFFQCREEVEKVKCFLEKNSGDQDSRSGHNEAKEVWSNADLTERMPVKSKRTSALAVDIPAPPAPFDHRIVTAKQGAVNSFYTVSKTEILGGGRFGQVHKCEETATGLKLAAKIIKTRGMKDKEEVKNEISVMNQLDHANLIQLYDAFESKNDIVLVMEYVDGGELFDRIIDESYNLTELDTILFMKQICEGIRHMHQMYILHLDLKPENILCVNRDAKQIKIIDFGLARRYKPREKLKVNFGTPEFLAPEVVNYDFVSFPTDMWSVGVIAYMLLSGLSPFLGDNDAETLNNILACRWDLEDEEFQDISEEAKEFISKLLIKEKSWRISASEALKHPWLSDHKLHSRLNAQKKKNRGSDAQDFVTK", "outline": "as §1"}, "MELK": {"molecular_target": "MELK (Homo sapiens, UniProt Q14680)", "sequence (Q14680 whole entry)": "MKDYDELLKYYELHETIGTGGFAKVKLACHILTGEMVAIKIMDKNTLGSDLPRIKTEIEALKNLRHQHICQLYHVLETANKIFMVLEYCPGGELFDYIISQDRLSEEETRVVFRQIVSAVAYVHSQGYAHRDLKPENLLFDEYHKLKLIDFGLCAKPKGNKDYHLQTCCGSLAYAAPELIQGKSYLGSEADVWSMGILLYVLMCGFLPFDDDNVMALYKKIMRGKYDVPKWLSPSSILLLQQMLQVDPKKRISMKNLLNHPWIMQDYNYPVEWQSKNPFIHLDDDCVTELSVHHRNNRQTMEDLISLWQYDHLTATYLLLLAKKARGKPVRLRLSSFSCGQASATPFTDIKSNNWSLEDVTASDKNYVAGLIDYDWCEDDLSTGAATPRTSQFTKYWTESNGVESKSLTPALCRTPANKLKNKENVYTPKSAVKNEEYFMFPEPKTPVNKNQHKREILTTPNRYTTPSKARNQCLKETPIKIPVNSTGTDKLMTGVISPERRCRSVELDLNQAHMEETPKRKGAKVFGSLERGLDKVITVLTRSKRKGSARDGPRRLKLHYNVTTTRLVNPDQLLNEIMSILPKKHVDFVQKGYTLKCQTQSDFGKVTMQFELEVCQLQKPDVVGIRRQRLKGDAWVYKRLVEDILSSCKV", "outline": "as §1"}, "DMPK2": {"molecular_target": "T5, DMPK2 (Homo sapiens, UniProt Q6DT37)", "T5 construct": "gene CDC42BPG", "outline": "as §1"}, "EPHB1": {"molecular_target": "EPHB1 (Homo sapiens, UniProt P54762)", "outline": "as §1"}, "ACVR2A": {"molecular_target": "ACVR2A (Homo sapiens, UniProt P27037)", "sequence (P27037 whole entry)": "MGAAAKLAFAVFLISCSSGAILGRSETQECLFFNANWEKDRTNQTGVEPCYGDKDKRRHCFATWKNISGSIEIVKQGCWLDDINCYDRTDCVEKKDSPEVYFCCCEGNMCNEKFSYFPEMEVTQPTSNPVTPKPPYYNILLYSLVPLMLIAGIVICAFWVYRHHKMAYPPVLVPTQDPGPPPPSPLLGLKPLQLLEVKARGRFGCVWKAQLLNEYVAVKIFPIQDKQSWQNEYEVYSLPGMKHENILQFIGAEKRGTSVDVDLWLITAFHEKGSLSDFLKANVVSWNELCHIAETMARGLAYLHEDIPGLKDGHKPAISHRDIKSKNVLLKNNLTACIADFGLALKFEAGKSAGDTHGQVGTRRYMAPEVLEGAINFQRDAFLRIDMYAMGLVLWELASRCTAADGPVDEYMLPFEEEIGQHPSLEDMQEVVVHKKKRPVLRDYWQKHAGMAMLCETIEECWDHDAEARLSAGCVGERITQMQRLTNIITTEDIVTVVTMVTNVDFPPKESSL", "outline": "as §1"}, "CLK2": {"molecular_target": "CLK2 (Homo sapiens, UniProt P49760)", "sequence (P49760 whole entry)": "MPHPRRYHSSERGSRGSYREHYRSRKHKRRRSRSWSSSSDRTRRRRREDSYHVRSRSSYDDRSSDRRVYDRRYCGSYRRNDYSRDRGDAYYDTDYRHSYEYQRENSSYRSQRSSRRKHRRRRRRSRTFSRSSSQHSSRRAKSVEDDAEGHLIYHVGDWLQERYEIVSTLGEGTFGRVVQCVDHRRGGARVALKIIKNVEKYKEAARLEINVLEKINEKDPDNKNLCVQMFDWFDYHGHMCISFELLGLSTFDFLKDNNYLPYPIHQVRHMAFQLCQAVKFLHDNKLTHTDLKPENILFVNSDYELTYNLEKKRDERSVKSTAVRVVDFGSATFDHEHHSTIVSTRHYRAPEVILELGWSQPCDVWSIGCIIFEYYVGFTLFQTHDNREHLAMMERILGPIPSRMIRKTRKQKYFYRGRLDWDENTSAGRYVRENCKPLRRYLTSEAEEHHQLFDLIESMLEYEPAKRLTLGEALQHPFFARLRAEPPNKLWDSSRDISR", "outline": "as §1"}, "ERK5": {"molecular_target": "T6, ERK5 (Homo sapiens, UniProt Q13164)", "T6 construct": "gene MAPK7", "outline": "as §1"}, "PAK3": {"molecular_target": "PAK3 (Homo sapiens, UniProt O75914)", "outline": "as §1"}}, "data": [{"compound": "C=C(C)[C@H]1CC=C(C)C(=O)C1", "note": "[S-carvone]", "values": [{"measurement": "remaining binding at 100 µM", "setting": "AKT1", "result": 84, "unit": "%"}, {"measurement": "remaining binding at 100 µM", "setting": "YANK3", "result": 91, "unit": "%"}, {"measurement": "remaining binding at 100 µM", "setting": "TNIK", "result": 84, "unit": "%"}, {"measurement": "remaining binding at 100 µM", "setting": "MLCK", "result": 98, "unit": "%"}, {"measurement": "remaining binding at 100 µM", "setting": "PFTAIRE2", "result": 87, "unit": "%"}, {"measurement": "remaining binding at 100 µM", "setting": "PIK3CA", "result": 79, "unit": "%"}, {"measurement": "remaining binding at 100 µM", "setting": "EPHB3", "result": 62, "unit": "%"}, {"measurement": "remaining binding at 100 µM", "setting": "CDKL1", "result": 70, "unit": "%"}, {"measurement": "remaining binding at 100 µM", "setting": "FES", "result": 69, "unit": "%"}, {"measurement": "remaining binding at 100 µM", "setting": "YES", "result": 84, "unit": "%"}, {"measurement": "remaining binding at 100 µM", "setting": "FLT3(N841I)", "result": 63, "unit": "%"}, {"measurement": "remaining binding at 100 µM", "setting": "TNK2", "result": 93, "unit": "%"}, {"measurement": "remaining binding at 100 µM", "setting": "MARK3", "result": 68, "unit": "%"}, {"measurement": "remaining binding at 100 µM", "setting": "ALK", "result": 73, "unit": "%"}, {"measurement": "remaining binding at 100 µM", "setting": "MYLK4", "result": 93, "unit": "%"}, {"measurement": "remaining binding at 100 µM", "setting": "MELK", "result": 99, "unit": "%"}, {"measurement": "remaining binding at 100 µM", "setting": "DMPK2", "result": 83, "unit": "%"}, {"measurement": "remaining binding at 100 µM", "setting": "EPHB1", "result": 88, "unit": "%"}, {"measurement": "remaining binding at 100 µM", "setting": "ACVR2A", "result": 90, "unit": "%"}, {"measurement": "remaining binding at 100 µM", "setting": "CLK2", "result": 60, "unit": "%"}, {"measurement": "remaining binding at 100 µM", "setting": "ERK5", "result": 93, "unit": "%"}, {"measurement": "remaining binding at 100 µM", "setting": "PAK3", "result": 78, "unit": "%"}]}]}
